Seven compounds from ChEMBL document CHEMBL1201862, “PubChem BioAssay data set” (2004) can be followed below.

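All cell lines were grown in 96-well plates and treated with compound for 48 hours. The concentration for 50% growth inhibition is given as GI50.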 Activity calls are given as the source filed them. No stated cut-off is given here; in the data, active = GI50 up to about 1.1 µM and inactive = higher.

Holding throughout (assay): NCI anticancer screen, dose series, 48 h
For experiment [1], the system named is SK-MEL-2.
Experiment [2] deals with MOLT-4.
Experiment [3] relates to SN12C.
Experiment [4] relates to NCI/ADR-RES.
The subject of experiment [5] is UACC-62.
Experiment [6] has as its system K562.
Experiment [7] concerns SR.
Experiment [8] has as its system UACC-257.
Experiment [9] deals with KM12.
In experiment [10] the test system is SNB-75.
Experiment [11] deals with 786-0.
In experiment [12] the test system is OVCAR-5.
In experiment [13] the test system is SK-MEL-5.
Experiment [14] deals with NCI-H460.
The subject of experiment [15] is U-251.
The test system of experiment [16] is RPMI-8226.
The test system of experiment [17] is PC-3.
Experiment [18] relates to HT-29.
Experiment [19] deals with BT-549.
In experiment [20] the test system is LOX IMVI.

For the compound `NCCNc1nc(N2CCCC2)c2nc(Cl)c(NCc3ccccc3)nc2n1`, the GI50 in [1] is 1.79 µM (inactive); in experiment [2] it was 2.13 µM (inactive); in experiment [3], 1.52 µM (inactive); in experiment [4], 13.6 µM (inactive); in experiment [5] it was 1.75 µM (inactive); in [6] it was 0.122 µM (active). In addition, the GI50 was 1.57 µM (inactive) in [7]; 1.9 µM (inactive) in [8]; 1.71 µM (inactive) in [9]; 1.72 µM (inactive) in experiment [10]; 1.77 µM (inactive) in experiment [11]; 2.44 µM (inactive) in experiment [12]. The GI50 in [13] is 1.75 µM (inactive); in experiment [14], 1.85 µM (inactive); in [15] it was 1.63 µM (inactive); in [16] it was 1.88 µM (inactive); in experiment [17] it was 2.5 µM (inactive); in experiment [18], 1.95 µM (inactive). Further, the GI50 in experiment [19] is 1.98 µM (inactive); in experiment [20] it was 1.56 µM (inactive).

Take `CC(CCC(=O)O)(c1cc(Br)c(O)c(Br)c1)c1cc(Br)c(O)c(Br)c1`: the GI50 is 52.4 µM (inactive) in experiment [1]; 48.3 µM (inactive) in experiment [2]; > 100 µM (inactive) in experiment [3]; 83.8 µM (inactive) in experiment [4]; 41 µM (inactive) in experiment [5]; 71.3 µM (inactive) in [6]. Besides, the GI50 was 39.1 µM (inactive) in [7]; 76 µM (inactive) in experiment [8]; 45.1 µM (inactive) in experiment [9]; 55.7 µM (inactive) in experiment [10]; > 100 µM (inactive) in experiment [11]; > 100 µM (inactive) in [12]. Moreover, the GI50 was 29.4 µM (inactive) in experiment [13]; 40.6 µM (inactive) in experiment [14]; 48.9 µM (inactive) in experiment [15]; 48.8 µM (inactive) in [16]; 54.7 µM (inactive) in [17]; 93.1 µM (inactive) in experiment [18]. Further, the results for the GI50 in [19] and in experiment [20] were 38.4 µM (inactive) and 45.5 µM (inactive), respectively.

Consider `C[N+](C)(C)CC(=O)N/N=C(/CC(=O)CC(C1=C(O)c2ccccc2OC1)c1ccccc1)C(=O)Nc1cccc(Cl)c1` (stereo not given), for which the GI50 in [1], in experiment [2], in [3], in experiment [4], in experiment [5] and in experiment [6] was > 100 µM (inactive) each time. Further, the GI50 in experiment [7], in experiment [8], in [9], in experiment [10], in experiment [11] and in experiment [12] was > 100 µM (inactive) each time. The GI50 in [13] was > 100 µM (inactive); in experiment [14] it was > 10 µM (inactive); in experiment [15], > 100 µM (inactive); in experiment [16], > 100 µM (inactive); in [17], > 100 µM (inactive); in experiment [18], > 100 µM (inactive). Further, the GI50 in [19] and in experiment [20] was > 100 µM (inactive) in each case.

Take `N#CC1C(=O)Nc2sc(C(=O)c3ccc(Br)cc3)c(N)c2C12CCCCC2` (stereo not given): the GI50 in experiment [1] is 14.2 µM (inactive); in experiment [2], 18.5 µM (inactive); in experiment [3], 27.9 µM (inactive); in experiment [4], 24.9 µM (inactive); in experiment [5], 18.3 µM (inactive); in experiment [6], 23.2 µM (inactive). Moreover, the GI50 in experiment [7] is 7.96 µM (inactive); in experiment [8], 23.6 µM (inactive); in [9], 13.4 µM (inactive); in [10] it was 33.1 µM (inactive); in experiment [11], 31.4 µM (inactive); in experiment [12], 40.5 µM (inactive). The GI50 is 14.6 µM (inactive) in [13]; 28.2 µM (inactive) in experiment [14]; 25.1 µM (inactive) in experiment [15]; 19.9 µM (inactive) in [16]; 10.4 µM (inactive) in experiment [17]; 33.4 µM (inactive) in experiment [18]. Besides, the GI50 in experiment [19] is 27.9 µM (inactive); in experiment [20], 24.1 µM (inactive).

Consider `CC(C(=O)[O-])S(=O)(=O)O.CCc1c2cc(OC)c(OC)cc2cc2c3cc(OC)c(OC)cc3cc[n+]12`, for which the GI50 was 25.6 µM (inactive) in [1]; 20.4 µM (inactive) in experiment [2]; 6.62 µM (inactive) in experiment [3]; 38.1 µM (inactive) in experiment [4]; 7.91 µM (inactive) in experiment [5]; 7.57 µM (inactive) in [6]. The GI50 in [7] was 13.3 µM (inactive); in [8], 13.3 µM (inactive); in experiment [9], 17.8 µM (inactive); in [10], 7.94 µM (inactive); in [11], 36.9 µM (inactive); in experiment [12] it was 58.7 µM (inactive). Besides, the GI50 is 15.3 µM (inactive) in [13]; 42.4 µM (inactive) in experiment [14]; 6.27 µM (inactive) in experiment [15]; 25.8 µM (inactive) in [16]; 17.9 µM (inactive) in experiment [17]; 45.2 µM (inactive) in [18]. Moreover, the GI50 was 3.81 µM (inactive) in [19] and 27.5 µM (inactive) in experiment [20].

As to `CN1CCN(c2ccc3nc(C4=C(O)C(=O)c5c(nc(CCl)n5C)C4=O)[nH]c3n2)CC1`, the GI50 was 10 µM (inactive) in experiment [1]; 21.8 µM (inactive) in experiment [2]; 9.98 µM (inactive) in experiment [3]; > 50 µM (inactive) in [4]; 9.89 µM (inactive) in experiment [5]; 24.2 µM (inactive) in experiment [6]. The GI50 was 31.8 µM (inactive) in experiment [7]; 12.4 µM (inactive) in [8]; 9.71 µM (inactive) in experiment [9]; 3.72 µM (inactive) in experiment [10]; 8.61 µM (inactive) in [11]; 14.2 µM (inactive) in experiment [12]. Besides, the GI50 is 24.2 µM (inactive) in experiment [13]; 20.2 µM (inactive) in experiment [14]; 8.77 µM (inactive) in experiment [15]; 26 µM (inactive) in experiment [16]; 16.9 µM (inactive) in experiment [17]; 11.6 µM (inactive) in [18]. Also, the GI50 in [19] was 9.79 µM (inactive); in experiment [20], 8.15 µM (inactive).

As for `C[C@]12CC[C@H](O)CC1=CC[C@@H]1[C@@H]2CC[C@]2(C)/C(=N/OCCN3CCCC3)CC[C@@H]12`, the GI50 in [1] is 21 µM (inactive); in experiment [2] it was 14.1 µM (inactive); in [3], 29 µM (inactive); in [4] it was 18.2 µM (inactive); in [5], 15.5 µM (inactive); in experiment [6], 4.36 µM (inactive). Also, the GI50 is 14.8 µM (inactive) in experiment [7]; 14.6 µM (inactive) in experiment [8]; 13.7 µM (inactive) in [9]; 19.3 µM (inactive) in [10]; 18.1 µM (inactive) in experiment [11]; 28.2 µM (inactive) in [12]. Moreover, the GI50 is 14.6 µM (inactive) in [13]; 12 µM (inactive) in experiment [14]; 17.5 µM (inactive) in [15]; 15.2 µM (inactive) in [16]; 17.8 µM (inactive) in experiment [17]; 2.7 µM (inactive) in [18]. Further, the values for the GI50 in experiment [19] and in experiment [20] were 16.3 µM (inactive) and 19.1 µM (inactive), respectively.
